{"source": "patent US12084472B2", "about": "(Ardelyx, Inc., priority 2015, dated 2024)", "data": [{"biological_target": "T1, human TGR5 (Homo sapiens, UniProt Q8TDU6)", "T1 construct": "expressed in transfected cells; host or cells: HEK293", "T1 sequence (Q8TDU6 1-330)": "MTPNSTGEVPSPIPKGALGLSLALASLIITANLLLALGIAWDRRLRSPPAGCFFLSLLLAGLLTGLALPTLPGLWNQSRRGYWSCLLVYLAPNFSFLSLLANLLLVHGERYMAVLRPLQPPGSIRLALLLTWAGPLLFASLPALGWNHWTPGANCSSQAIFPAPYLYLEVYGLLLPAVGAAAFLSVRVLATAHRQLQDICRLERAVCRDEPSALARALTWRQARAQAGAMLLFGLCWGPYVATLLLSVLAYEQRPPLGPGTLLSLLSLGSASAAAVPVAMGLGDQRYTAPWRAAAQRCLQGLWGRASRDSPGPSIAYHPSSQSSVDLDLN", "test": "Cell-based TGR5 assay (cAMP generation, HTRF)", "conditions": "HEK293 cells stably transfected with human TGR5; cAMP by HTRF; 30 minutes at 37° C.", "outline": "(§1)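 First, compounds in 3-fold serial dilution were placed in HBSS with 10 mM HEPES pH 7.4 and 0.5 mM IBMX. Next, human TGR5-expressing HEK293 cells were added and incubated 30 min at 37° C. Finally, cAMP was detected by HTRF and pEC50 derived by logistic fitting.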", "values": [{"smiles": "CN(CCCCNC(=O)NCCOCCOCCNC(=O)NCCOCCOCCNC(=O)NCCCCN(C)S(=O)(=O)c1ccc(Cl)c(COC2(c3cnccc3-c3ccccc3OC3CC3)CC2)c1)S(=O)(=O)c1ccc(Cl)c(COC2(c3cnccc3-c3ccccc3OC3CC3)CC2)c1", "note": "[Compound I-737, 3-(4-[N-methyl[4-chloro-3-([1-[4-(2-cyclopropoxyphenyl)pyridin-3-yl]cyclopropoxy]methyl)benzene]sulfonamido]butyl)-1-[2-(2-[2-[([2-[2-(2-[[(4-[N-methyl[4-chloro-3-([1-[4-(2-cyclopropoxyphenyl)pyridin-3-yl]cyclopropoxy]methyl)benzene]sulfonamido]butyl)carbamoyl]amino]ethoxy)ethoxy]ethyl]carbamoyl)amino]ethoxy]ethoxy)ethyl]urea]", "pEC50 Human TGR5": "B (B is a pEC50 of 6 to 6.9)"}]}, {"biological_target": "T1, human TGR5", "test": "Cell-based TGR5 assay (cAMP generation, HTRF)", "conditions": "HEK293 cells stably transfected with human TGR5; cAMP by HTRF; 30 minutes at 37° C.; read-out: pEC50 Human TGR5 (converted)", "outline": "as §1", "units": {"EC50": "nM"}, "values": [{"smiles": "CC(C)CN(CCCCNC(=O)N[C@@H](CO)[C@@H](O)[C@H](O)[C@H](O)CO)S(=O)(=O)c1ccc(Cl)c(COC2(c3cnccc3-c3ccccc3OC3CC3)CC2)c1", "note": "[Compound I-761, 4-chloro-3-((1-(4-(2-cyclopropoxyphenyl)pyridin-3-yl)cyclopropoxy)methyl)-N-isobutyl-N-(4-(3-((2S,3R,4S,5R)-1,3,4,5,6-pentahydroxyhexan-2-yl)ureido)butyl)benzenesulfonamide]", "EC50": "< 100"}, {"smiles": "Cc1ccc(SCCCCC(=O)N(C)C[C@H](O)[C@@H](O)[C@H](O)[C@H](O)CO)nc1COC1(c2cnccc2-c2ccccc2OC2CC2)CC1", "note": "[Compound I-658, 5-{[6-({1-[4-(2-cyclopropoxyphenyl)pyridin-3-yl]cyclopropoxy}methyl)-5-methylpyridin-2-yl]sulfanyl}-N-methyl-N-[(2S,3R,4R,5R)-2,3,4,5,6-pentahydroxyhexyl]pentanamide]", "EC50": "1260 to 10000"}, {"smiles": "Cc1ccc(C(C)CCCNC(=O)NC[C@H](O)[C@@H](O)[C@H](O)[C@H](O)CO)cc1CNC1(c2cnccc2-c2ccccc2OC2CC2)CC1", "note": "(stereo partly drawn) [Compound I-271, 1-(4-{3-[({l-[4-(2-cyclopropoxyphenyl)pyridin-3-yl]cyclopropyl}amino)methyl]-4-methylphenyl}pentyl)-3-[(2S,3R,4R,5R)-2,3,4,5,6-pentahydroxyhexyl]urea]", "EC50": "< 100"}, {"smiles": "COCCC(=O)N(CCCCc1cc(Cl)c(COC2(c3cnccc3-c3ccccc3OC3CC3)CC2)cc1Cl)C[C@H](O)[C@@H](O)[C@H](O)[C@H](O)CO", "note": "[Compound I-75, N-(4-(2,5-dichloro-4-((1-(4-(2-cyclopropoxyphenyl)pyridin-3-yl)cyclopropoxy)methyl)phenyl)butyl)-3-methoxy-N-((2S,3R,4R,5R)-2,3,4,5,6-pentahydroxyhexyl)propanamide]", "EC50": "< 100"}, {"smiles": "C[C@H](O)CN(CCCCc1cc(Cl)c(COC2(c3cnccc3-c3ccccc3OC3CC3)CC2)cc1Cl)C(=O)[C@@H](O)[C@@H](O)[C@H](O)[C@@H](O)CO", "note": "[Compound I-215, (2S,3S,4R,5S)-N-{4-[2,5-dichloro-4-({1-[4-(2-cyclopropoxyphenyl)pyridin-3-yl]cyclopropoxy}methyl)phenyl]butyl}-2,3,4,5,6-pentahydroxy-N-[(2S)-2-hydroxypropyl]hexanamide]", "EC50": "< 100"}, {"smiles": "CC(CCCC(=O)N(CCO)C[C@@H](O)[C@H](O)[C@@H](O)[C@@H](O)CO)c1ccc(Cl)c(CNC2(c3cnccc3-c3ccccc3OC3CC3)CC2)c1", "note": "(stereo partly drawn) [Compound I-331, 5-{4-chloro-3-[({1-[4-(2-cyclopropoxyphenyl)pyridin-3-yl]cyclopropyl}amino)methyl]phenyl}-N-(2-hydroxyethyl)-N-[(2R,3S,4S,5S)-2,3,4,5,6-pentahydroxyhexyl]hexanamide]", "EC50": "< 100"}, {"smiles": "O=C(N[C@@H](CO)[C@@H](O)[C@H](O)[C@H](O)CO)c1cccc(OCc2ccc(Cl)c(COC3(c4cnccc4-c4ccccc4OC4CC4)CC3)c2)c1", "note": "[Compound I-756, 3-((4-chloro-3-((1-(4-(2-cyclopropoxyphenyl)pyridin-3-yl)cyclopropoxy)methyl)benzyl)oxy)-N-((2S,3R,4S,5R)-1,3,4,5,6-pentahydroxyhexan-2-yl)benzamide]", "EC50": "126 to 1000"}, {"smiles": "O=C(CCC1CCN(S(=O)(=O)c2ccc(Cl)c(COC3(c4cnccc4-c4ccccc4OC4CC4)CC3)c2)CC1)NC[C@H](O)[C@@H](O)[C@H](O)[C@H](O)CO", "note": "[Compound I-449, 3-{1-[4-chloro-3-({1-[4-(2-cyclopropoxyphenyl)pyridin-3-yl]cyclopropoxy}methyl)benzenesulfonyl]piperidin-4-yl}-N-[(2S,3R,4R,5R)-2,3,4,5,6-pentahydroxyhexyl]propanamide]", "EC50": "< 100"}, {"smiles": "CN(C[C@H](O)[C@@H](O)[C@H](O)[C@H](O)CO)C(=O)CCCCSc1ccc(Cl)c(CNC2(c3cnccc3-c3ccccc3OC3CC3)CC2)c1", "note": "[Compound I-678, 5-({4-chloro-3-[({1-[4-(2-cyclopropoxyphenyl)pyridin-3-yl]cyclopropyl}amino)methyl]phenyl}sulfanyl)-N-methyl-N-[(2S,3R,4R,5R)-2,3,4,5,6-pentahydroxyhexyl]pentanamide]", "EC50": "< 100"}, {"smiles": "O=C1NCCN1CCN(CCCCSc1ccc(Cl)c(COC2(c3cnccc3-c3ccccc3OC3CC3)CC2)c1)C(=O)[C@@H](O)[C@@H](O)[C@H](O)[C@@H](O)CO", "note": "[Compound I-517, (2S,3S,4R,5S)-N-(4-{[4-chloro-3-({1-[4-(2-cyclopropoxyphenyl)pyridin-3-yl]cyclopropoxy}methyl)phenyl]sulfanyl}butyl)-2,3,4,5,6-pentahydroxy-N-[2-(2-oxoimidazolidin-1-yl)ethyl]hexanamide]", "EC50": "< 100"}, {"smiles": "Cc1cc(COC2(c3cnccc3-c3ccccc3OC3CC3)CC2)c(Cl)cc1CCCCNC(=O)N[C@@H](C)C(=O)N[C@@H](C)C(=O)N[C@@H](C)C(=O)O", "note": "[Compound I-112, (2S)-2-[(2S)-2-[(2S)-2-[({4-[5-chloro-4-({1-[4-(2-cyclopropoxyphenyl)pyridin-3-yl]cyclopropoxy}methyl)-2-methylphenyl]butyl}carbamoyl)amino]propanamido]propanamido]propanoic acid]", "EC50": "< 100"}, {"smiles": "O=C(NCC1CCCN(S(=O)(=O)c2ccc(Cl)c(COC3(c4cnccc4-c4ccccc4OC4CC4)CC3)c2)C1)NC[C@H](O)[C@@H](O)[C@H](O)[C@H](O)CO", "note": "(stereo in doubt) [Compound I-426, 1-({1-[4-chloro-3-({1-[4-(2-cyclopropoxyphenyl)pyridin-3-yl]cyclopropoxy}methyl)benzenesulfonyl]piperidin-3-yl}methyl)-3-[(2S,3R,4R,5R)-2,3,4,5,6-pentahydroxyhexyl]urea]", "EC50": "< 100"}, {"smiles": "CCN(CCCCNC(=O)N[C@@H](CO)[C@@H](O)[C@H](O)[C@H](O)CO)S(=O)(=O)c1ccc(Cl)c(CNC2(c3cnccc3-c3ccccc3OC3CC3)CC2)c1", "note": "[Compound I-696, 1-[4-(N-ethyl[4-chloro-3-[([1-[4-(2-cyclopropoxyphenyl)pyridin-3-yl]cyclopropyl]amino)methyl]benzene]sulfonamido)butyl]-3-[(2S,3R,4S,5R)-1,3,4,5,6-pentahydroxyhexan-2-yl]urea]", "EC50": "< 100"}, {"smiles": "CC(=O)N(CCCCC(C)c1ccc(Cl)c(CNC2(c3cnccc3-c3ccccc3OC3CC3)CC2)c1)C[C@H](O)[C@@H](O)[C@H](O)[C@H](O)CO", "note": "(stereo partly drawn) [Compound I-378, N-(5-{4-chloro-3-[({1-[4-(2-cyclopropoxyphenyl)pyridin-3-yl]cyclopropyl}amino)methyl]phenyl}hexyl)-N-[(2S,3R,4R,5R)-2,3,4,5,6-pentahydroxyhexyl]acetamide]", "EC50": "< 100"}]}]}
